# From BindingDB's records for doi:10.1021/jm701519h (Cns Biological Research, 2008)
# Biological target: Cannabinoid receptor 2 (Homo sapiens, UniProt P34972)
# Sequence (P34972 whole entry): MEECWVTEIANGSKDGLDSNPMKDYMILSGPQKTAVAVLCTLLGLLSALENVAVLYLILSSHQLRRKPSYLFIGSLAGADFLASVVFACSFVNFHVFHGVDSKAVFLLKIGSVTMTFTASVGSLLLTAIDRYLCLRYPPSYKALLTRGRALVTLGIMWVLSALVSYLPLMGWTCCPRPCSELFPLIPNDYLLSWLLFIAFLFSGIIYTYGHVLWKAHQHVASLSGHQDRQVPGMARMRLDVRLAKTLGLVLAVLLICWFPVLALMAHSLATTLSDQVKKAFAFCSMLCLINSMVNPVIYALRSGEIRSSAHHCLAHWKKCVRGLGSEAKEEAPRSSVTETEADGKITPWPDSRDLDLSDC
smiles,measurement,value
O=C1C(CCC(O)c2ccc(F)cc2)C(c2ccc(O)cc2)N1c1ccc(F)cc1 (stereo unspecified) [CAS_44450418],Ki,1.82 µM
